In patent publication US12564638B2 (SHANGHAITECH UNIVERSITY, priority 2019, dated 2026):

The molecules below were run on HCC827 cells (EGFR Exon19 del, non-small cell lung cancer cells) (assay: Cell viability assay (WST/CCK8), HCC827 cells). Settings: HCC827 cells, 72 hours.
Type: cell-based
How it was run: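 Cells seeded at 3 000/well in RPMI1640 complete medium, dosed next day with compounds (top 10 μM, 3-fold, 10 points) for 72 h. Viability read with WST (CCK8) reagent; DMSO as negative control, EGFR TKIs as positive controls; IC50 determined.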

Structure (SMILES)	cell proliferation inhibition (in words)
COc1cc2ncnc(Nc3cccc(Cl)c3F)c2cc1OC1CCN(CC(=O)NCCCCSc2cccc3c2CN(C2CCC(=O)NC2=O)C3=O)CC1 (stereo not shown) [SIAIS293067, 2-(4-((4-((3-chloro-2-fluorophenyl)amino)-7-methoxyquinazolin-6-yl)oxy)piperidin-1-yl)-N-(4-((2-(2,6-dioxopiperidin-3-yl)-1-oxoisoindolin-4-yl)thio)butyl)acetamide]	better than sapitinib on cell killing

Same assay, conditions: Homo sapiens, HCC827, 72 h, HCC827 (Exon19 Del), 72 hours, WST (CCK8); read-out: IC50 (half inhibitory concentration)

IC50	Structure (SMILES)
26.8 nM	COc1cc2ncnc(Nc3ccc(F)c(Cl)c3)c2cc1NC(=O)/C=C/CN1CCC(N2CCN(CCCCCCCCCCCSc3cccc4c3CN(C3CCC(=O)NC3=O)C4=O)CC2)CC1 (stereo not shown) [SIAIS337040, (E)-N-(4-((3-chloro-4-fluorophenyl)amino)-7-methoxyquinazolin-6-yl)-4-(4-(4-(11-((2-(2,6-dioxopiperidin-3-yl)-1-oxoisoindolin-4-yl)thio)undecyl)piperazin-1-yl)piperidin-1-yl)but-2-enamide]

Same assay, conditions: Homo sapiens, HCC827, 72 h, Table 4, gefitinib and sapitinib-based compounds; HCC827 (Exon19 Del); 72 hours; WST; read-out: IC50 (half inhibitory concentration)

Structure (SMILES)	IC50
COc1cc2ncnc(Nc3ccc(F)c(Cl)c3)c2cc1OC1CCN(CC(=O)NCCSc2cccc3c2CN(C2CCC(=O)NC2=O)C3=O)CC1 (stereo not shown) [SIAIS293047, 2-(4-((4-((3-chloro-4-fluorophenyl)amino)-7-methoxyquinazolin-6-yl)oxy)piperidin-1-yl)-N-(2-((2-(2,6-dioxopiperidin-3-yl)-1-oxoisoindolin-4-yl)thio)ethyl)acetamide]	12 nM
COc1cc2ncnc(Nc3ccc(F)c(Cl)c3)c2cc1OC1CCN(CC(=O)NCCCSc2cccc3c2CN(C2CCC(=O)NC2=O)C3=O)CC1 (stereo not shown) [SIAIS293048, 2-(4-((4-((3-chloro-4-fluorophenyl)amino)-7-methoxyquinazolin-6-yl)oxy)piperidin-1-yl)-N-(3-((2-(2,6-dioxopiperidin-3-yl)-1-oxoisoindolin-4-yl)thio)propyl)acetamide]	23 nM
COc1cc2ncnc(Nc3ccc(F)c(Cl)c3)c2cc1OC1CCN(CC(=O)NCCCCSc2cccc3c2CN(C2CCC(=O)NC2=O)C3=O)CC1 (stereo not shown) [SIAIS293049, 2-(4-((4-((3-chloro-4-fluorophenyl)amino)-7-methoxyquinazolin-6-yl)oxy)piperidin-1-yl)-N-(4-((2-(2,6-dioxopiperidin-3-yl)-1-oxoisoindolin-4-yl)thio)butyl)acetamide]	2.8 nM
COc1cc2ncnc(Nc3ccc(F)c(Cl)c3)c2cc1OC1CCN(CC(=O)NCCCCCCSc2cccc3c2CN(C2CCC(=O)NC2=O)C3=O)CC1 (stereo not shown) [SIAIS293050, 2-(4-((4-((3-chloro-4-fluorophenyl)amino)-7-methoxyquinazolin-6-yl)oxy)piperidin-1-yl)-N-(6-((2-(2,6-dioxopiperidin-3-yl)-1-oxoisoindolin-4-yl)thio)hexyl)acetamide]	1.5 nM
COc1cc2ncnc(Nc3ccc(F)c(Cl)c3)c2cc1OC1CCN(CC(=O)NCCCCCCCSc2cccc3c2CN(C2CCC(=O)NC2=O)C3=O)CC1 (stereo not shown) [SIAIS293051, 2-(4-((4-((3-chloro-4-fluorophenyl)amino)-7-methoxyquinazolin-6-yl)oxy)piperidin-1-yl)-N-(7-((2-(2,6-dioxopiperidin-3-yl)-1-oxoisoindolin-4-yl)thio)heptyl)acetamide]	6.5 nM
COc1cc2ncnc(Nc3ccc(F)c(Cl)c3)c2cc1OC1CCN(CC(=O)NCCCCCCCCSc2cccc3c2CN(C2CCC(=O)NC2=O)C3=O)CC1 (stereo not shown) [SIAIS293052, 2-(4-((4-((3-chloro-4-fluorophenyl)amino)-7-methoxyquinazolin-6-yl)oxy)piperidin-1-yl)-N-(8-((2-(2,6-dioxopiperidin-3-yl)-1-oxoisoindolin-4-yl)thio)octyl)acetamide]	0.25 nM
COc1cc2ncnc(Nc3cccc(Cl)c3F)c2cc1OC1CCN(CC(=O)NCCCCSc2cccc3c2CN(C2CCC(=O)NC2=O)C3=O)CC1 (stereo not shown) [SIAIS293067, 2-(4-((4-((3-chloro-2-fluorophenyl)amino)-7-methoxyquinazolin-6-yl)oxy)piperidin-1-yl)-N-(4-((2-(2,6-dioxopiperidin-3-yl)-1-oxoisoindolin-4-yl)thio)butyl)acetamide]	0.3 nM
COc1cc2ncnc(Nc3cccc(Cl)c3F)c2cc1OC1CCN(CC(=O)NCCCCCCCSc2cccc3c2CN(C2CCC(=O)NC2=O)C3=O)CC1 (stereo not shown) [SIAIS293069, 2-(4-((4-((3-chloro-2-fluorophenyl)amino)-7-methoxyquinazolin-6-yl)oxy)piperidin-1-yl)-N-(7-((2-(2,6-dioxopiperidin-3-yl)-1-oxoisoindolin-4-yl)thio)heptyl)acetamide]	9.4 nM

Second part, the molecule after the results:

IC50	Structure (SMILES)
1.2 nM	COc1cc2ncnc(Nc3cccc(Cl)c3F)c2cc1OC1CCN(CC(=O)NCCCCCCSc2cccc3c2CN(C2CCC(=O)NC2=O)C3=O)CC1 (stereo not shown) [SIAIS293068, 2-(4-((4-((3-chloro-2-fluorophenyl)amino)-7-methoxyquinazolin-6-yl)oxy)piperidin-1-yl)-N-(6-((2-(2,6-dioxopiperidin-3-yl)-1-oxoisoindolin-4-yl)thio)hexyl)acetamide]
14 nM	COc1cc2ncnc(Nc3cccc(Cl)c3F)c2cc1OC1CCN(CC(=O)NCCCCCCCCSc2cccc3c2CN(C2CCC(=O)NC2=O)C3=O)CC1 (stereo not shown) [SIAIS293070, 2-(4-((4-((3-chloro-2-fluorophenyl)amino)-7-methoxyquinazolin-6-yl)oxy)piperidin-1-yl)-N-(8-((2-(2,6-dioxopiperidin-3-yl)-1-oxoisoindolin-4-yl)thio)octyl)acetamide]

Same assay, conditions: Homo sapiens, HCC827, 72 h, Table 5, afatinib-based compounds; HCC827 (Exon19 Del); 72 hours; WST; read-out: IC50 (half inhibitory concentration)

IC50	Structure (SMILES)
481 nM	O=C1CCC(N2Cc3c(SCCC(=O)Nc4cc5c(Nc6ccc(F)c(Cl)c6)ncnc5cc4O[C@H]4CCOC4)cccc3C2=O)C(=O)N1 (stereo partly drawn) [SIAIS1210085, N-(4-((3-chloro-4-fluorophenyl)amino)-7-(((S)-tetrahydrofuran-3-yl)oxy)quinazolin-6-yl)-3-((2-(2,6-dioxopiperidin-3-yl)-1-oxoisoindolin-4-yl)thio)propanamide]
238 nM	O=C1CCC(N2Cc3c(SCCCC(=O)Nc4cc5c(Nc6ccc(F)c(Cl)c6)ncnc5cc4O[C@H]4CCOC4)cccc3C2=O)C(=O)N1 (stereo partly drawn) [SIAIS1210087, N-(4-((3-chloro-4-fluorophenyl)amino)-7-(((S)-tetrahydrofuran-3-yl)oxy)quinazolin-6-yl)-4-((2-(2,6-dioxopiperidin-3-yl)-1-oxoisoindolin-4-yl)thio)butanamide]
160 nM	O=C1CCC(N2Cc3c(SCCCCCC(=O)Nc4cc5c(Nc6ccc(F)c(Cl)c6)ncnc5cc4O[C@H]4CCOC4)cccc3C2=O)C(=O)N1 (stereo partly drawn) [SIAIS1210089, N-(4-((3-chloro-4-fluorophenyl)amino)-7-(((S)-tetrahydrofuran-3-yl)oxy)quinazolin-6-yl)-6-((2-(2,6-dioxopiperidin-3-yl)-1-oxoisoindolin-4-yl)thio)hexanamide]

Same assay, conditions: Homo sapiens, HCC827, 72 h, Table 8, osimertinib-based compounds; HCC827; 72 hours; WST; read-out: IC50 (half inhibitory concentration)

Structure (SMILES)	IC50
C=CC(=O)Nc1cc(Nc2nccc(-c3cn(C)c4ccccc34)n2)c(OC)cc1N(C)CCN(C)C(=O)CSc1cccc2c1CN(C1CCC(=O)NC1=O)C2=O (stereo not shown) [SIAIS337052, N-(2-((2-(2-((2-(2,6-dioxopiperidin-3-yl)-1-oxoisoindolin-4-yl)thio)-N-methylacetamido)ethyl)(methyl)amino)-4-methoxy-5-((4-(1-methyl-1H-indol-3-yl)pyrimidin-2-yl)amino)phenyl)acrylamide]	353 nM
C=CC(=O)Nc1cc(Nc2nccc(-c3cn(C)c4ccccc34)n2)c(OC)cc1N(C)CCN(C)C(=O)CCCCCCCCCCSc1cccc2c1CN(C1CCC(=O)NC1=O)C2=O (stereo not shown) [SIAIS337061, N-(2-((2-acrylamido-5-methoxy-4-((4-(1-methyl-1H-indol-3-yl)pyrimidin-2-yl)amino)phenyl)(methyl)amino)ethyl)-11-((2-(2,6-dioxopiperidin-3-yl)-1-oxoisoindolin-4-yl)thio)-N-methylundecanamide]	353 nM
C=CC(=O)Nc1cc(Nc2nccc(-c3cn(C)c4ccccc34)n2)c(OC)cc1N(C)CCN(C)C(=O)COCCOCCSc1cccc2c1CN(C1CCC(=O)NC1=O)C2=O (stereo not shown) [SIAIS337075, N-(2-((2-(2-(2-(2-((2-(2,6-dioxopiperidin-3-yl)-1-oxoisoindolin-4-yl)thio)ethoxy)ethoxy)-N-methylacetamido)ethyl)(methyl)amino)-4-methoxy-5-((4-(1-methyl-1H-indol-3-yl)pyrimidin-2-yl)amino)phenyl)acrylamide]	170 nM
C=CC(=O)Nc1cc(Nc2nccc(-c3cn(C)c4ccccc34)n2)c(OC)cc1N(C)CCN(C)C(=O)COCCOCCOCCOCCSc1cccc2c1CN(C1CCC(=O)NC1=O)C2=O (stereo not shown) [SIAIS337077, N-(2-((2-acrylamido-5-methoxy-4-((4-(1-methyl-1H-indol-3-yl)pyrimidin-2-yl)amino)phenyl)(methyl)amino)ethyl)-14-((2-(2,6-dioxopiperidin-3-yl)-1-oxoisoindolin-4-yl)thio)-N-methyl-3,6,9,12-tetraoxatetradecanamide]	36 nM
C=CC(=O)Nc1cc(Nc2nccc(-c3cn(C)c4ccccc34)n2)c(OC)cc1N(C)CCN(C)C(=O)COCCOCCOCCOCCOCCSc1cccc2c1CN(C1CCC(=O)NC1=O)C2=O (stereo not shown) [SIAIS337078, N-(2-((2-acrylamido-5-methoxy-4-((4-(1-methyl-1H-indol-3-yl)pyrimidin-2-yl)amino)phenyl)(methyl)amino)ethyl)-17-((2-(2,6-dioxopiperidin-3-yl)-1-oxoisoindolin-4-yl)thio)-N-methyl-3,6,9,12,15-pentaoxaheptadecanamide]	125 nM

Further lines, results first:

IC50	Structure (SMILES)
461 nM	C=CC(=O)Nc1cc(Nc2nccc(-c3cn(C)c4ccccc34)n2)c(OC)cc1N(C)CCN(C)C(=O)CCCCSc1cccc2c1CN(C1CCC(=O)NC1=O)C2=O (stereo not shown) [SIAIS337055, N-(2-((2-acrylamido-5-methoxy-4-((4-(1-methyl-1H-indol-3-yl)pyrimidin-2-yl)amino)phenyl)(methyl)amino)ethyl)-5-((2-(2,6-dioxopiperidin-3-yl)-1-oxoisoindolin-4-yl)thio)-N-methylpentanamide]
46.7 nM	C=CC(=O)Nc1cc(Nc2nccc(-c3cn(C)c4ccccc34)n2)c(OC)cc1N(C)CCN(C)C(=O)CCCCCCCCSc1cccc2c1CN(C1CCC(=O)NC1=O)C2=O (stereo not shown) [SIAIS337059, N-(2-((2-acrylamido-5-methoxy-4-((4-(1-methyl-1H-indol-3-yl)pyrimidin-2-yl)amino)phenyl)(methyl)amino)ethyl)-9-((2-(2,6-dioxopiperidin-3-yl)-1-oxoisoindolin-4-yl)thio)-N-methylnonanamide]
